What follows are compounds tested against TAAR1 (Mus musculus (Mouse), UniProt Q923Y8) (assay: TAAR1 radioligand binding assay ([3H]-rac-2-(1,2,3,4-tetrahydro-1-naphthyl)-2-imidazoline, membranes of stably transfected HEK293 cells)). Conditions: read-out: Ki (μM) mouse; mouse TAAR1; radioligand [3H]-rac-2-(1,2,3,4-tetrahydro-1-naphthyl)-2-imidazoline at 60 nM; 4° C., 30 minutes.
Chain of TAAR1 (Q923Y8 whole entry): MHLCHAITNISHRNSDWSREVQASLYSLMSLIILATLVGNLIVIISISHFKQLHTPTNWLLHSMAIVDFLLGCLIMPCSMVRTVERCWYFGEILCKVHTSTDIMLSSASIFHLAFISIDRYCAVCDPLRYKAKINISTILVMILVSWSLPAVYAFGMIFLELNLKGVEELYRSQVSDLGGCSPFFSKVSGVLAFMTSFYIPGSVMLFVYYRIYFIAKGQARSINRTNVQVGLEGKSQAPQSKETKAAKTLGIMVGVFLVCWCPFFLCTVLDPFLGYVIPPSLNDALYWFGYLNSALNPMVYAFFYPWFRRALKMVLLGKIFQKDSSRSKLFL
Description: The ability of the compounds of the present invention to bind to TAAR1 was investigated in accordance with the test given hereinafter.
For the generation of stably transfected cell lines HEK293 cells were transfected with the pIRESneo2 expression plasmids containing the TAAR coding sequences (described above) with Lipofectamine 2000 (Invitrogen) according to the instructions of the manufacturer, and 24 hours post transfection the culture medium was supplemented with 1 mg/ml G418 (Sigma, Buchs, Switzerland). After a culture period of about 10 days, clones were isolated, expanded and tested for responsiveness to trace amines (all compounds purchased from Sigma) with the cAMP Biotrak Enzyme immunoassay (EIA) System (Amersham) following the non-acetylation EIA procedure provided by the manufacturer.
Cells at confluence were rinsed with ice-cold phosphate buffered saline without Ca^2+ and Mg^2+ containing 10 mM EDTA and pelleted by centrifugation at 1000 rpm for 5 min at 4° C. The pellet was then washed twice with ice-cold phosphate buffered saline and cell pellet was frozen immediately by immersion in liquid nitrogen and stored until use at −80° C. The cell pellet was then suspended in 20 ml HEPES-NaOH (20 mM), pH 7.4 containing 10 mM EDTA, and homogenized with a Polytron (PT 3000, Kinematica) at 10,000 rpm for 10 seconds. The homogenate was centrifuged at 48,000×g for 30 minutes at 4° C. and the pellet resuspended in 20 ml HEPES-NaOH (20 mM), pH 7.4 containing 0.1 mM EDTA (buffer A), and homogenized with a Polytron at 10,000 rpm for 10 seconds. The homogenate was then centrifuged at 48,000×g for 30 minutes at 4° C. and the pellet resuspended in 20 ml buffer A, and homogenized with a Polytron at 10,000 rpm for 10 seconds. […] The homogenate was then centrifuged at 48,000×g for 10 minutes at 4° C., resuspended in HEPES-NaOH (20 mM), pH 7.0 including MgCl2 (10 mM) and CaCl2 (2 ml) (buffer B) at 200 μg protein per ml and homogenized with a Polytron at 10,000 rpm for 10 seconds.
Binding assay was performed at 4° C. in a final volume of 1 ml, and with an incubation time of 30 minutes. […] Non-specific binding was defined as the amount of [^3H]-rac-2-(1,2,3,4-tetrahydro-1-naphthyl)-2-imidazoline bound in the presence of the appropriate unlabelled ligand (10 μM). Competing ligands were tested in a wide range of concentrations (10 pM-30 μM). […] Each experiment was performed in duplicate. All incubations were terminated by rapid filtration through UniFilter-96 plates (Packard Instrument Company) and glass filter GF/C, pre-soaked for at least 2 h in polyethylenimine 0.3%, and using a Filtermate 96 Cell Harvester (Packard Instrument Company). The tubes and filters were then washed 3 times with 1 ml aliquots of cold buffer B. Filters were not dried and soaked in Ultima gold (45 D/well, Packard Instrument Company) and bound radioactivity was counted by a TopCount Microplate Scintillation Counter (Packard Instrument Company).

**Q.** With CCN(Cc1cnc[nH]1)c1cccc(C)c1 [Example 6, Ethyl-(3H-imidazol-4-ylmethyl)-m-tolyl-amine] as the compound, how does the Ki read?
**A.** 0.0018 µM

**Q.** CN(Cc1cnc[nH]1)c1ccc(Cl)cc1 [Example 10, (4-Chloro-phenyl)-(3H-imidazol-4-ylmethyl)-methyl-amine] was tested. Which Ki did it give?
**A.** 0.0045 µM

**Q.** Which Ki does the source give for Clc1cccc(N(Cc2cnc[nH]2)Cc2ccccc2Cl)c1 [Example 18, (2-Chloro-benzyl)-(3-chloro-phenyl)-(1H-imidazol-4-ylmethyl)-amine] here?
**A.** 0.0039 µM

**Q.** Which Ki does the source give for Clc1cccc(CN(Cc2cnc[nH]2)c2cccc(Cl)c2)c1 [Example 19, (3-Chloro-benzyl)-(3-chloro-phenyl)-(1H-imidazol-4-ylmethyl)-amine] here?
**A.** 0.0077 µM

**Q.** Which Ki does the source give for Clc1ccc(CN(Cc2cnc[nH]2)c2cccc(Cl)c2)cc1 [Example 20, (4-Chloro-benzyl)-(3-chloro-phenyl)-(1H-imidazol-4-ylmethyl)-amine] here?
**A.** 0.0059 µM

**Q.** For Clc1cccc(N(Cc2ccccc2)Cc2cnc[nH]2)c1 [Example 21, Benzyl-(3-chloro-phenyl)-(1H-imidazol-4-ylmethyl)-amine], which Ki is on record?
**A.** 0.0078 µM

**Q.** Which Ki does the source give for CC(C)N(Cc1cnc[nH]1)c1cc(Cl)cc(Cl)c1 [Example 24, (3,5-Dichloro-phenyl)-(3H-imidazol-4-ylmethyl)-isopropyl-amine] here?
**A.** 0.001 µM

**Q.** For Cc1cccc(N(Cc2cnc[nH]2)C(C)C)c1 [Example 26, (3H-Imidazol-4-ylmethyl)-isopropyl-m-tolyl-amine], which Ki is on record?
**A.** 0.0034 µM

**Q.** How did the Ki turn out when CC(C)N(Cc1cnc[nH]1)c1cccc(C(F)(F)F)c1 [Example 27, (3H-Imidazol-4-ylmethyl)-isopropyl-(3-trifluoromethyl-phenyl)-amine] was run?
**A.** 0.0023 µM

**Q.** Which Ki does the source give for CC(C)N(Cc1cnc[nH]1)c1ccc(Cl)c(C(F)(F)F)c1 [Example 31, (4-Chloro-3-trifluoromethyl-phenyl)-(3H-imidazol-4-ylmethyl)-isopropyl-amine] here?
**A.** 0.0045 µM

**Q.** CC(C)N(Cc1cnc[nH]1)c1ccc(OC(F)(F)F)c(Cl)c1 [Example 33, (3-Chloro-4-trifluoromethoxy-phenyl)-(3H-imidazol-4-ylmethyl)-isopropyl-amine] was tested. Which Ki did it give?
**A.** 0.0028 µM

**Q.** How did the Ki turn out when Clc1cccc(N(Cc2cnc[nH]2)CC2CC2)c1 [Example 51, (3-Chloro-phenyl)-cyclopropylmethyl-(3H-imidazol-4-ylmethyl)-amine] was run?
**A.** 0.0009 µM

**Q.** CC(C1CC1)N(Cc1cnc[nH]1)c1cccc(Cl)c1 (stereo not shown) [Example 52, (3-Chloro-phenyl)-(1-cyclopropylethyl)-(3H-imidazol-4-ylmethyl)-amine] was tested. Which Ki did it give?
**A.** 0.004 µM

**Q.** CC(C)N(Cc1cnc[nH]1)c1ccc(F)c(Cl)c1 [Example 53, (3-Chloro-4-fluoro-phenyl)-(3H-imidazol-4-ylmethyl)-isopropyl-amine] was tested. Which Ki did it give?
**A.** 0.0015 µM

**Q.** CCN(Cc1cnc[nH]1)c1ccc(Cl)cc1 [Example 57, (4-Chloro-phenyl)-ethyl-(3H-imidazol-4-ylmethyl)-amine] was tested. Which Ki did it give?
**A.** 0.0014 µM

**Q.** For CCN(Cc1cnc[nH]1)c1ccc(F)c(F)c1 [Example 58, (3,4-Difluoro-phenyl)-ethyl-(3H-imidazol-4-ylmethyl)-amine], which Ki is on record?
**A.** 0.0014 µM

**Q.** CC(C)N(Cc1cnc[nH]1)c1ccc(OC(F)(F)F)cc1 [Example 67, (3H-Imidazol-4-ylmethyl)-isopropyl-(4-trifluoromethoxy-phenyl)-amine] was tested. Which Ki did it give?
**A.** 0.0067 µM

**Q.** Which Ki does the source give for CC(C)N(Cc1cnc[nH]1)c1ccc2ccccc2c1 [Example 70, (3H-Imidazol-4-ylmethyl)-isopropyl-naphthalen-2-yl-amine] here?
**A.** 0.0082 µM

**Q.** With CC(C)N(Cc1cnc[nH]1)c1ccc2c(c1)CCC2 [Example 73, (3H-Imidazol-4-ylmethyl)-indan-5-yl-isopropyl-amine] as the compound, how does the Ki read?
**A.** 0.0055 µM

**Q.** With CC(C)N(Cc1cnc[nH]1)c1cc(F)cc(Cl)c1 [Example 76, (3-Chloro-5-fluoro-phenyl)-(3H-imidazol-4-ylmethyl)-isopropyl-amine] as the compound, how does the Ki read?
**A.** 0.0011 µM

**Q.** For CC(C)N(Cc1cnc[nH]1)c1ccc(F)c(F)c1 [Example 77, (3,4-Difluoro-phenyl)-(3H-imidazol-4-ylmethyl)-isopropyl-amine], which Ki is on record?
**A.** 0.0053 µM

**Q.** With CC(C)N(Cc1cnc[nH]1)c1cc(Cl)ccc1F [Example 78, (5-Chloro-2-fluoro-phenyl)-(3H-imidazol-4-ylmethyl)-isopropyl-amine] as the compound, how does the Ki read?
**A.** 0.0052 µM

**Q.** For CCN(Cc1cnc[nH]1)c1cccc(Cl)c1F [Example 81, (3-Chloro-2-fluoro-phenyl)-ethyl-(3H-imidazol-4-ylmethyl)-amine], which Ki is on record?
**A.** 0.0036 µM

**Q.** For CCN(Cc1cnc[nH]1)c1ccc2ccccc2c1 [Example 82, Ethyl-(3H-imidazol-4-ylmethyl)-naphthalen-2-yl-amine], which Ki is on record?
**A.** 0.0012 µM

**Q.** With CC(C)N(Cc1cnc[nH]1)c1cc(F)cc(F)c1 [Example 101, (3,5-Difluoro-phenyl)-(3H-imidazol-4-ylmethyl)-isopropyl-amine] as the compound, how does the Ki read?
**A.** 0.003 µM

**Q.** How did the Ki turn out when COc1c(F)ccc(N(Cc2cnc[nH]2)C(C)C)c1F [Example 102, (2,4-Difluoro-3-methoxy-phenyl)-(3H-imidazol-4-ylmethyl)-isopropyl-amine] was run?
**A.** 0.006 µM

**Q.** Which Ki does the source give for Cc1cc(N(Cc2cnc[nH]2)C(C)C)ccc1F [Example 109, (4-Fluoro-3-methyl-phenyl)-(3H-imidazol-4-ylmethyl)-isopropyl-amine] here?
**A.** 0.0041 µM

**Q.** CC(C)Oc1cccc(N(Cc2cnc[nH]2)C(C)C)c1 [Example 110, (3H-Imidazol-4-ylmethyl)-(3-isopropoxy-phenyl)-isopropyl-amine] was tested. Which Ki did it give?
**A.** 0.0067 µM

**Q.** With CC(C)N(Cc1cnc[nH]1)c1cccc(OCc2ccccc2)c1 [Example 114, (3-Benzyloxy-phenyl)-(3H-imidazol-4-ylmethyl)-isopropyl-amine] as the compound, how does the Ki read?
**A.** 0.0041 µM

**Q.** How did the Ki turn out when CC(C)N(Cc1cnc[nH]1)c1cccc(OC(F)(F)F)c1 [Example 115, (3H-Imidazol-4-ylmethyl)-isopropyl-(3-trifluoromethoxy-phenyl)-amine] was run?
**A.** 0.009 µM

**Q.** CC(C)N(Cc1cnc[nH]1)c1cccc(Oc2ccccc2)c1 [Example 123, (3H-Imidazol-4-ylmethyl)-isopropyl-(3-phenoxy-phenyl)-amine] was tested. Which Ki did it give?
**A.** 0.0021 µM

**Q.** CC(C)N(Cc1cnc[nH]1)c1cccc(OC(F)(F)C(F)F)c1 [Example 125, (3H-Imidazol-4-ylmethyl)-isopropyl-[3-(1,1,2,2-tetrafluoro-ethoxy)-phenyl]-amine] was tested. Which Ki did it give?
**A.** 0.0044 µM

**Q.** How did the Ki turn out when Cc1ccc(N(Cc2cnc[nH]2)C(C)C)cc1Cl [Example 128, (3-Chloro-4-methyl-phenyl)-(1H-imidazol-4-ylmethyl)-isopropyl-amine] was run?
**A.** 0.0023 µM

**Q.** How did the Ki turn out when CCN(Cc1cnc[nH]1)c1ccc(C)c(C)c1 [Example 130, (3,4-Dimethyl-phenyl)-ethyl-(1H-imidazol-4-ylmethyl)-amine] was run?
**A.** 0.0039 µM

**Q.** How did the Ki turn out when CC(C)N(Cc1cnc[nH]1)c1ccc(OCc2ccccc2)c(Cl)c1 [Example 133, (4-Benzyloxy-3-chloro-phenyl)-(1H-imidazol-4-ylmethyl)-isopropyl-amine] was run?
**A.** 0.0077 µM

**Q.** Which Ki does the source give for CCN(Cc1cnc[nH]1)c1ccc(Oc2ccc(Cl)cc2)c(Cl)c1 [Example 139, [3-Chloro-4-(4-chloro-phenoxy)-phenyl]-ethyl-(1H-imidazol-4-ylmethyl)-amine] here?
**A.** 0.0039 µM

**Q.** Which Ki does the source give for CC(C)N(Cc1cnc[nH]1)c1cccc(Cc2ccccc2)c1 [Example 141, (3-Benzyl-phenyl)-(3H-imidazol-4-ylmethyl)-isopropyl-amine] here?
**A.** 0.0015 µM

**Q.** Which Ki does the source give for CC(C)N(Cc1cnc[nH]1)c1cccc(-c2ccccc2)c1 [Example 142, Biphenyl-3-yl-(3H-imidazol-4-ylmethyl)-isopropyl-amine] here?
**A.** 0.0079 µM

**Q.** With CC(C)N(Cc1cnc[nH]1)c1cccc(Oc2ccc(Cl)cc2)c1 [Example 149, [3-(4-Chloro-phenoxy)-phenyl]-(3H-imidazol-4-ylmethyl)-isopropyl-amine] as the compound, how does the Ki read?
**A.** 0.0082 µM

**Q.** How did the Ki turn out when c1ccc(Nc2ccc(NCc3cnc[nH]3)cc2)cc1 [Example 155, N-(1H-Imidazol-4-ylmethyl)-N′-phenyl-benzene-1,4-diamine] was run?
**A.** 0.0094 µM

**Q.** With CC(C)N(Cc1cnc[nH]1)c1ccc(F)c(Br)c1 [Example 170, (3-Bromo-4-fluoro-phenyl)-(3H-imidazol-4-ylmethyl)-isopropyl-amine] as the compound, how does the Ki read?
**A.** 0.0025 µM

**Q.** CN(Cc1cnc[nH]1)c1cccc(Oc2ccccc2)c1 [Example 175, (3H-Imidazol-4-ylmethyl)-methyl-(3-phenoxy-phenyl)-amine] was tested. Which Ki did it give?
**A.** 0.0036 µM

**Q.** Fc1cc(Cl)cc(NCc2cnc[nH]2)c1 [Example 179, (3-Chloro-5-fluoro-phenyl)-(1H-imidazol-4-ylmethyl)-amine] was tested. Which Ki did it give?
**A.** 0.0026 µM

**Q.** For Fc1cc(NCc2cnc[nH]2)ccc1Br [Example 181, (4-Bromo-3-fluoro-phenyl)-(1H-imidazol-4-ylmethyl)-amine], which Ki is on record?
**A.** 0.0098 µM

**Q.** With Fc1ccc(NCc2cnc[nH]2)cc1Br [Example 183, (3-Bromo-4-fluoro-phenyl)-(3H-imidazol-4-ylmethyl)-amine] as the compound, how does the Ki read?
**A.** 0.0051 µM

**Q.** With COc1cccc(N(C)Cc2cnc[nH]2)c1 [Example 186, (3H-Imidazol-4-ylmethyl)-(3-methoxy-phenyl)-methyl-amine] as the compound, how does the Ki read?
**A.** 0.0089 µM

**Q.** For CCN(Cc1cnc[nH]1)c1cccc(Oc2ccccc2)c1 [Example 188, Ethyl-(3H-imidazol-4-ylmethyl)-(3-phenoxy-phenyl)-amine], which Ki is on record?
**A.** 0.0024 µM

**Q.** With CN(Cc1cnc[nH]1)c1cccc(OC(F)F)c1 [Example 189, (3-Difluoromethoxy-phenyl)-(3H-imidazol-4-ylmethyl)-methyl-amine] as the compound, how does the Ki read?
**A.** 0.0068 µM

**Q.** For CN(Cc1cnc[nH]1)c1cccc(OCc2ccccc2)c1 [Example 190, (3-Benzyloxy-phenyl)-(3H-imidazol-4-ylmethyl)-methyl-amine], which Ki is on record?
**A.** 0.0014 µM

**Q.** How did the Ki turn out when CCN(Cc1cnc[nH]1)c1cccc(OCc2ccccc2)c1 [Example 192, (3-Benzyloxy-phenyl)-ethyl-(3H-imidazol-4-ylmethyl)-amine] was run?
**A.** 0.001 µM

**Q.** With CCN(Cc1cnc[nH]1)c1cccc(OC)c1 [Example 193, Ethyl-(3H-imidazol-4-ylmethyl)-(3-methoxy-phenyl)-amine] as the compound, how does the Ki read?
**A.** 0.008 µM

**Q.** For CCN(Cc1cnc[nH]1)c1ccc(F)c(OC)c1 [Example 194, Ethyl-(4-fluoro-3-methoxy-phenyl)-(3H-imidazol-4-ylmethyl)-amine], which Ki is on record?
**A.** 0.0048 µM
